Measured values from paper PMC6694196, “Intrinsic tryptophan fluorescence spectroscopy reliably determines galectin-ligand interactions” (Scientific Reports, 2019).
Where “and” joins values, the source holds several entries; their conditions need not be identical. Equal entries are not always repeated. Entries after “also recorded” stand apart in the source; their conditions may differ.

Key:
galectin-2 [1] = target: galectin-2; set-up: method as in PMID 12223272; settings: frontal affinity chromatography, read-out: binding affinity; cited from earlier work
galectin-3 [2] = target: T1, galectin-3 (Homo sapiens, UniProt P17931); assay: Tryptophan fluorescence spectroscopy (TFS) of galectin-3-ligand interaction; format: binding; settings: for maximum ligand binding-induced change of intrinsic fluorescence intensity: galectin-3, buffer control titration subtracted; for shift of fluorescence emission maximum to lower wavelength (blue shift): galectin-3, ligand titration; for Kd: galectin-3 10 µM, PBS, 25 °C, One site-Specific binding model
T1 construct: full-length human galectin-3 (residues 1–250, UniProt code: P17931); His-tag (N, cleaved yes); made in house; host or cells: E. coli BL21(DE3)
Description: (§1) All tryptophan fluorescence spectroscopy experiments were performed using CARY Eclipse Fluorescence Spectrophotometer (Varian Inc. Santa Clara, California, USA) and a 3 ml quartz cuvette. […] The temperature was maintained constant at 25 °C by an external thermostatic water circulator. […] Control buffer titrations to galectin solutions were performed in parallel for background determination in each experiment. Data from three independent experiments were analysed using nonlinear regression with ‘One Site- Specific Binding’ model (Y = Bmax * X/(KD + X) where X is the ligand concentration, Y is the fluorescence intensity, Bmax is the maximum specific binding and KD is the equilibrium binding constant) in GraphPad Prism 7.04.

galectin-4 [3] = target: galectin-4; set-up: method as in PMID 15546874; settings: SPR, read-out: binding affinity; cited from earlier work
galectin-2 [4] = target: T2, galectin-2 (Homo sapiens, UniProt P05162); assay: TFS of galectin-2-ligand interaction; format: binding; settings: for blue shift of maximum fluorescence peak: galectin-2; for maximum ligand binding-induced fluorescence intensity change: galectin-2, buffer titration subtracted; for Kd: galectin-2 20 µM, PBS, 25 °C, mean ± SEM
T2 construct: full length human galectin-2 (residues 1–132, UniProt code: P05162); 6xHis-SUMO (N, cleaved yes); made in house; host or cells: E. coli BL21(DE3)
T2 sequence (P05162 1-132): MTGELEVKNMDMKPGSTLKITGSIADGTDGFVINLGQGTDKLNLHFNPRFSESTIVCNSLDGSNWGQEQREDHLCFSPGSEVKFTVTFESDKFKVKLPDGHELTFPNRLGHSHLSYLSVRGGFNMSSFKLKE
Description: as §1, with “circulator. To measure galectin-ligand interactions, recombinant galectin-2 at 20 µM, galectin-3 at 10 µM and galectin-4, -4N and -4C at 5 µM were allowed to equilibrate in PBS for 10–30 minutes under constant stirring before being titrated with testing carbohydrate ligand solutions.” for “circulator.”

galectin-4 [5] = target: T3, galectin-4 (Homo sapiens, UniProt P56470); assay: TFS of galectin-4-ligand interaction; format: binding; settings: for blue shift of maximum fluorescence peak: galectin-4; for maximum ligand binding-induced fluorescence intensity change: galectin-4, control buffer titration deducted; for Kd: full-length galectin-4 5 µM, PBS, 25 °C
T3 construct: 6xHis-SUMO (N, cleaved yes); made in house; host or cells: E. coli BL21(DE3)
T3 sequence (P56470 1-323): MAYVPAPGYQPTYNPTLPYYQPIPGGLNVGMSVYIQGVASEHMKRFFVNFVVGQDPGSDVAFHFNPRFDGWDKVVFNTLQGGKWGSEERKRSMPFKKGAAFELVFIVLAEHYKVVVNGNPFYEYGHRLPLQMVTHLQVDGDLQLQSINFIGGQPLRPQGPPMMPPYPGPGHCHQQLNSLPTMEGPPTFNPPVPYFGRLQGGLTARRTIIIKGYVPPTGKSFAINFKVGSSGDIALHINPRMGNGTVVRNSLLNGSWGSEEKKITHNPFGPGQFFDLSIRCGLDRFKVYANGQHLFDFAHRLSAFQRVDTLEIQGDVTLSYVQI
Description: as §1, with “circulator. To measure galectin-ligand interactions, recombinant galectin-2 at 20 µM, galectin-3 at 10 µM and galectin-4, -4N and -4C at 5 µM were allowed to equilibrate in PBS for 10–30 minutes under constant stirring before being titrated with testing carbohydrate ligand solutions.” for “circulator.”

galectin-3 [6] = target: T1, galectin-3; assay: Isothermal titration calorimetry (ITC) of galectin-3-ligand interaction; format: binding; settings: for Kd: galectin-3 100 µM, PBS, 25 °C
Description: ITC experiments were performed at 25 °C using a MicroCal iTC200 microcalorimeter (Malvern Analytical Ltd, Malvern, UK) with 200 µl cell capacity and 40 µl injection syringe volume. […] Ligand-to-buffer and buffer-to-galectin titrations were performed as controls. Ligands were titrated in 19 injections of 2 µl aliquots with 120 s spacing between injections to allow baseline recovery. The ITC titration data were analysed using MicroCal Data Analysis for iTC200 which is an Origin 7.0-based software programme.

[7] = target: T4, galectin-4C (residues 153–323) (Homo sapiens, UniProt P56470); assay: ITC of galectin-4C-ligand interaction; format: binding; settings: for binding by ITC (in words): galectin-4C 100 µM
T4 construct: His-tag (pET47b, HRV3C-cleavable) (cleaved yes); made in house; host or cells: E. coli BL21(DE3)
T4 sequence (P56470 153-323): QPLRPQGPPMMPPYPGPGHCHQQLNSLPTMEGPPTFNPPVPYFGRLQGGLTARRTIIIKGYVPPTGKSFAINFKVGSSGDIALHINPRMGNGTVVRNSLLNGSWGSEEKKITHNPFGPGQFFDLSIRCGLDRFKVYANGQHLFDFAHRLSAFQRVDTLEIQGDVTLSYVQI
Description: (§2) ITC experiments were performed at 25 °C using a MicroCal iTC200 microcalorimeter (Malvern Analytical Ltd, Malvern, UK) with 200 µl cell capacity and 40 µl injection syringe volume. All galectins were used at 100 µM in PBS and the binding ligands were prepared in identical buffers. […] F3 was titrated into galectin-3 at concentration of 20 mM. Ligand-to-buffer and buffer-to-galectin titrations were performed as controls. Ligands were titrated in 19 injections of 2 µl aliquots with 120 s spacing between injections to allow baseline recovery. The ITC titration data were analysed using MicroCal Data Analysis for iTC200 which is an Origin 7.0-based software programme. A curve fit using the ‘One set of sites’ interaction model was used to determine the association constant (KA), stoichiometry of binding (N) and enthalpy change (∆H) for all the interactions of simple sugars with the galectins except F3, where a logistic fit was used due to the nature of F3 as a mixture of heterogeneous polysaccharides.

galectin-4 [8] = target: T3, galectin-4; assay: ITC of galectin-4-ligand interaction; format: binding; settings: for binding by ITC (in words): galectin-4 100 µM, 200 mM galactose
Description: as §2

[9] = target: T5, galectin-4N (residues 1–152) (Homo sapiens, UniProt P56470); assay: TFS of galectin-4N-ligand interaction; format: binding; settings: galectin-4N 5 µM, PBS, 25 °C
T5 construct: N-terminal galectin-4 (galectin-4N, residues 1–152); His-tag (pET47b, HRV3C-cleavable) (cleaved yes); made in house; host or cells: E. coli BL21(DE3)
T5 sequence (P56470 1-152): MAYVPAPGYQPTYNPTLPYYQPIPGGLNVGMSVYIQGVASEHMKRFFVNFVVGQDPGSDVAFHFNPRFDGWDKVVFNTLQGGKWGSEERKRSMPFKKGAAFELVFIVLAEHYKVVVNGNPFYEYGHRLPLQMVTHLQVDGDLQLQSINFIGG
Description: as §1, with “circulator. To measure galectin-ligand interactions, recombinant galectin-2 at 20 µM, galectin-3 at 10 µM and galectin-4, -4N and -4C at 5 µM were allowed to equilibrate in PBS for 10–30 minutes under constant stirring before being titrated with testing carbohydrate ligand solutions.” for “circulator.”

[10] = target: T4, galectin-4C (residues 153–323); assay: TFS of galectin-4C-ligand interaction; format: binding; settings: galectin-4C 5 µM, PBS, 25 °C
Description: as §1, with “circulator. To measure galectin-ligand interactions, recombinant galectin-2 at 20 µM, galectin-3 at 10 µM and galectin-4, -4N and -4C at 5 µM were allowed to equilibrate in PBS for 10–30 minutes under constant stirring before being titrated with testing carbohydrate ligand solutions.” for “circulator.”

galectin-4C = tested on: galectin-4C; set-up: method as in PMID 15464951, PMID 26077389; settings: fluorescence anisotropy, LacNAc vs lactose; cited from earlier work
galectin-2 [11] = target: T2, galectin-2; assay: ITC of galectin-2-ligand interaction; format: binding; settings: for binding by ITC (in words): 200 mM galactose
Description: as §2

[12] = target: T5, galectin-4N (residues 1–152); assay: ITC of galectin-4N-ligand interaction; format: binding; settings: galectin-4N 100 µM, 200 mM galactose
Description: as §2

T1 sequence (P17931 whole entry, the tested form may be a part): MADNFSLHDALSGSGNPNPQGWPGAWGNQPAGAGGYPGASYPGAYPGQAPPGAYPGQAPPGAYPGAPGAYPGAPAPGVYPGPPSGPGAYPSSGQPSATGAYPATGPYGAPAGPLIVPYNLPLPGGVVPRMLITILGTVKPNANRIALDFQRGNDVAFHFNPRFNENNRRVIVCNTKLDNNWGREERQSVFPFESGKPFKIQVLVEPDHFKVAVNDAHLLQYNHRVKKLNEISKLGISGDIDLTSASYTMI

In the case of α-lactose, the Kd (galectin-2 [1]) is listed as 1.1 mM, the “maximum ligand binding-induced change of intrinsic fluorescence intensity” value (“maximum ligand binding-induced change” below) (galectin-3 [2]) is listed as 21 units and the “shift of fluorescence emission maximum to lower wavelength (blue shift)” value (“shift … to lower wavelength (blue shift)” for short) (galectin-3 [2]) is listed as 9–10 nm. For the same molecule, the Kd (galectin-4 [3]) was 0.86 mM, the “blue shift of maximum fluorescence peak” value (galectin-2 [4]) was 7 nm and the “maximum ligand binding-induced fluorescence intensity change” value (galectin-2 [4]) was 59 units. The “blue shift of maximum fluorescence peak” value (galectin-4 [5]) was 10 nm and the “maximum ligand binding-induced fluorescence intensity change” value (galectin-4 [5]) was 49 units.
For CC(=O)N[C@H]1C(O)O[C@H](CO)[C@@H](O[C@@H]2O[C@H](CO)[C@H](O)[C@H](O)[C@H]2O)[C@@H]1O (stereo partly drawn) [LacNAc, N-Acetyl-D-lactosamine], the “enthalpy ∆H of binding” value (galectin-3 [6]; galectin-3) was -16.5 kcal/mol, the Kd (galectin-3 [6]; One set of sites model, mean ± SEM, n=3) was 0.024 ± 0.0036 mM and the “difference in enthalpy change to lactose” value (galectin-3 [6]; galectin-3, LacNAc vs lactose) was 4.4 kcal/mol. The “fold stronger binding than lactose” value (galectin-3 [6]; galectin-3, LacNAc vs lactose) was ~ 4 fold, the “difference in binding enthalpy to galactose” value (galectin-3 [6]; galectin-3, weakest ligand galactose to strongest ligand LacNAc) was 6.1 kcal/mol and the Kd (galectin-3 [2]; mean ± SEM, n=3) was 0.0279 ± 0.0046 mM. For the same molecule, the “maximum ligand binding-induced change” value (galectin-3 [2]) was 26 units, the “shift … to lower wavelength (blue shift)” value (galectin-3 [2]) was 9–10 nm and the “blue shift of maximum fluorescence peak” value (galectin-2 [4]) was 10 nm. For the same molecule, the Kd (galectin-2 [4]; n=3, read-out: KD) was 0.654 ± 0.155 mM, the “maximum ligand binding-induced fluorescence intensity change” value (galectin-2 [4]) was 52 units and the “binding by ITC (in words)” value [7] was “very too weak and mostly beyond detection”. It also gave a Kd (galectin-4 [8]; full-length galectin-4 100 µM, PBS, 25 °C, read-out: KD) of 3.5 ± 0.5 mM, a Kd [9] of 7.4 ± 0.9 mM and a Kd [10] of 12.1 ± 0.7 mM. For the same molecule, the Kd (galectin-4 [5]; read-out: KD) was 9.3 ± 0.8 mM, the “blue shift of maximum fluorescence peak” value (galectin-4 [5]) was 5 nm and the “maximum ligand binding-induced fluorescence intensity change” value (galectin-4 [5]) was 50 units. For the same molecule, the “fold weaker binding than lactose” value (galectin-4C) was “at least 11 fold”, the Kd (galectin-2 [11]; ITC, galectin-2 100 µM, PBS, 25 °C, mean ± SEM, n=3, read-out: KD) was 0.554 ± 0.108 mM and the “fold stronger binding than lactose” value (galectin-2 [11]; ITC, galectin-2, LacNAc vs lactose) was ~ 2 fold.
In the case of O=C[C@H](O)[C@@H](O)[C@@H](O)[C@H](O)CO [galactose, D-galactose], the Kd (galectin-3 [6]; One set of sites model (F3: logistic fit)) is reported as 3.1 ± 1.1 mM, the Kd (galectin-3 [2]) is reported as 4.7 mM and ~5 mM and the “maximum ligand binding-induced change” value (galectin-3 [2]) is reported as 28 units. The “shift … to lower wavelength (blue shift)” value (galectin-3 [2]) was 9–10 nm, the Kd (galectin-2 [4]; KD, n=3) was 35.6 mM and 30 to 40 mM and the “blue shift of maximum fluorescence peak” value (galectin-2 [4]) was 6 nm. The “maximum ligand binding-induced fluorescence intensity change” value (galectin-2 [4]) was 57 units, the “binding by ITC (in words)” value [7] was “very too weak and mostly beyond detection” and the Kd ([7]; galectin-4C, Fig. 7G,I, read-out: KD (class symbol in figure)) was > 1 mM. The “binding by ITC (in words)” value (galectin-4 [8]) was “too weak to be determined”, the “binding by ITC (in words)” value (galectin-4 [8]; listed as Galactose) was “too weak to be reliably determined” and the Kd (galectin-4 [8]; galectin-4, Fig. 5I, read-out: KD (class symbol in figure)) was > 1 mM. For the same molecule, the Kd [9] was 43.3 ± 5.2 mM, the “binding by ITC (in words)” value [12] was “very little, if any, binding taking place; also recorded: very too weak and mostly beyond detection” and the Kd [10] was 33.8 ± 3 mM. The Kd (galectin-4 [5]; KD) was 33.6 mM and 30 to 40 mM, the “blue shift of maximum fluorescence peak” value (galectin-4 [5]) was 4 nm and the “maximum ligand binding-induced fluorescence intensity change” value (galectin-4 [5]) was 80 units. The Kd (galectin-2 [11]) was > 1 mM, the “binding by ITC (in words)” value (galectin-2 [11]; ITC, galectin-2 100 µM) was “too weak to be determined” and the “binding by ITC (in words)” value (galectin-2 [11]; ITC, galectin-2 100 µM, listed as Galactose) was “too weak to be reliably determined”.
